Data on 6 compounds can be found in US12157745B2, “Heterocyclic systems and pharmaceutical compositions thereof” (University of Sharjah, priority 2018, dated 2024).

What all share (test): Full dose-response, survival of cancer cell line (SRB assay)
What all share (type): cell-based
A general note: The SRB assay estimates cell density from bound dye.

The subject of one assay is SKBR3. The conditions noted are these: Homo sapiens, SK-BR-3; breast cancer; 48 hours of drug treatment; average of three individual experiments. The source says: (§1) Dulbecco's Modified Eagles Medium (DMEM), RPMI 1640 medium and propidium iodide (PI) were purchased from Sigma Aldrich (Darmstadt, Germany). For western blot, the antibodies; c-Myc, p^53, p^21, Bax, Bid, BclxL, GAPDH, caspase-3, caspase-9, p-ATM, p-ATR, p-Chk1, p-Chk2, p-P^53, and p-H2AX along with respective mouse/rabbit secondary antibodies were purchased from Cell Signaling Technology (Danvers, MA, USA). FITC Annexin V Apoptosis kit was purchased from BD Biosciences (New Jersey, USA). All other chemicals and solvents used were of standard analytical grade. The stock solutions of SIMR compounds were made in 100% DMSO and working solutions for treatments never exceeded >1% DMSO. The cell lines were gifted from Radiobiology and Experimental Radio Oncology lab, University Cancer Center, Hamburg University, Hamburg, Germany. F180 and HCT116 cells were cultured in DMEM media while MCF-7 and SKBR3 cells were cultured in RPMI along with 10% FBS and 5% CO2 in a humidified incubator at 37° C. The cells were grown on polystyrene T-75 (75 cm^2) culture flasks and all the experiments were performed at ˜70% cell confluency.
(§2) SRB assay was performed on DU-143 and MCF-7 cells in order to find out the sub-lethal dosage (IC50) of the synthesized compounds based on reported method with minor modifications. Briefly, 1×10^4 cells were seeded in a 96-well plate overnight and were treated with different concentrations of compounds and incubated further for 48 hours. The wells which were devoid of any treatment served as controls. After the treatment time, the plates were incubated with 50% trichloroacetic acid (TCA) at 4° C. for 1 hour. The cells were then washed, dried and exposed to 1% acetic acid for short period. Two hundred microliters of 10 mMtris base solution was then added with 10 min incubation after drying the plates and the OD was read at 492 nm by using a Multiskan™ GO (Thermo Scientific, USA) microplate Spectrophotometer.

The test system of another assay is MCF7. The note with it: Homo sapiens, breast cancer, 48 hours of drug treatment, average of three individual experiments.
Source text: as §1, §2

The next assay relates to HCT116. The note with it: Homo sapiens, HCT-116; colon cancer; 48 hours of drug treatment; average of three individual experiments.
Source text: as §1, §2

The structures appear in SMILES notation.

Take `CC(=O)Nc1ccc(C2=CSC3=N[C@@H]4c5c(ccc6ccccc56)OC[C@@H]4C(C)(C)N23)cc1` [Compound 1m]: the IC50 (usually the concentration at which inhibition is half-maximal) was 6.4 µM in the assay on SKBR3, 4.5 µM in the assay on MCF7 and 3.7 µM in the assay with HCT116.
Take `COc1ccc(OC)c(C2=CSC3=N[C@@H]4c5c(ccc6ccccc56)OC[C@@H]4C(C)(C)N23)c1` [Compound 1n]: the IC50 was determined as 10.1 µM with SKBR3, 6.76 µM with MCF7 and 6.2 µM in the assay with HCT116.
As for `CC1=C(c2ccccc2)N2C(=N[C@@H]3c4c(ccc5ccccc45)OC[C@@H]3C2(C)C)S1` [Compound 1q], the IC50 with SKBR3 amounted to 9.4 µM; with MCF7 it was 11.8 µM; in the assay with HCT116, 4.7 µM.
For `CC1=C(c2ccc(Br)cc2)N2C(=N[C@@H]3c4c(ccc5ccccc45)OC[C@@H]3C2(C)C)S1` [Compound 1r], the IC50 in the assay with SKBR3 worked out at 7.6 µM; in the assay on MCF7 it was 8.14 µM; in the assay with HCT116, 7.2 µM.
`CC1=C(c2ccc(Cl)c(Cl)c2)N2C(=N[C@H]3c4cc5c6c(c4OC[C@@H]3C2(C)C)CCCN6CCC5)S1` [Compound 1x]: the figures for the IC50 in the assay on SKBR3, in the assay with MCF7 and in the assay on HCT116 were 1.4 µM, 0.38 µM and 2.3 µM, respectively.
Consider `COc1cccc2c1C(=O)c1c(O)c3c(c(O)c1C2=O)C[C@@](O)(C(=O)CO)C[C@@H]3O[C@H]1C[C@H](N)[C@H](O)[C@H](C)O1` [Doxorubicin, reference compound], for which the results for the IC50 in the assay on SKBR3, in the assay with MCF7 and with HCT116 were 0.25 µM, 0.058 µM and 0.096 µM, respectively.
